This is an account of results in US10000793B2, “Method for enumeration of mammalian cell micronuclei, while distinguishing chromatin of dead and dying cells” (priority 2004, dated 2018).

Where a name gives a salt, the structure may show the parent alone. Read-outs that look alike come from different tables or passages of the source.

The subject of series [1] is L5178Y cells. Kind of series: In vitro micronucleus test, flow cytometric (EMA/SYTOX) and microscopy scoring, L5178Y cells. The method, then:
L5178Y cells were treated over a range of chemical concentrations in culture medium, one 25 cm^2 flask per concentration. During treatment, cells were at 3×10^5/ml in a volume of 20 ml per flask (this high number of cells facilitated multiple readings per flask). After a 4 hr treatment period, cells were washed one time via centrifugation at 600×g, resuspended in a volume of 40 ml culture medium, and transferred to 75 cm^2 flasks. Cells were re-incubated at 37° C. for 20 additional hrs—the equivalent of two normal doubling times.
In this case, cultures (1.5×10^5 cells/ml, 40 ml/flask) were continuously exposed to chemical over a range of concentrations. Cells were harvested after 24 hrs of incubation at 37° C. without recovery.
At the time of cell harvest, FDA+ and PI+ cell counts were performed as described supra. […] Cells were collected via centrifugation at approximately 600×g for 5 minutes. Supernatants were aspirated, and cells were resuspended with gentle tapping. […] These tubes were placed in racks and submerged to a depth of approximately 2 cm in crushed ice. A visible light source (60 watt light bulb) was positioned approximately 30 cm above the tubes for 20 minutes.
After the photoactivation period, 800 μl cold buffer solution was added to each sample. From this point forward, exposure of samples to light was minimized with dim lighting and foil. The contents of the tubes were then transferred to 15 ml polypropylene centrifuge tubes, and 8 ml of cold buffer solution was added to each sample. Cells were collected via centrifugation, and supernatants aspirated such that approximately 50 μl of supernatant remained per tube. Cells were gently resuspended with tapping, and were maintained at room temperature until the follow procedures were initiated (within 30 minutes). 1 ml “Lysis Solution 1” was added slowly to each tube (approximately 15 seconds per sample). […] Upon addition of Lysis Solution 1, the tube was immediately vortexed (medium setting) for 5 seconds. These samples were kept at room temperature for 1 hr. At this time, 1 ml “Lysis Solution 2” was injected forcefully into each tube, which were immediately vortexed (medium) for 5 seconds. […] These specimens were maintained at room temperature for 30 minutes. Subsequently, samples were stored at 4° C. until flow cytometric analysis (up to two days following cell harvest/staining/lysis procedures).
(§1) Samples, stored for up to two days at 4° C., were gently tapped to resuspend the particles. Data acquisition and analysis was then accomplished with a single-laser flow cytometer, 488 nm excitation (FACSCalibur, BD Biosciences, San Jose, Calif.). Instrumentation settings and data acquisition/analysis were controlled with CellQuest software v3.3 (BD Biosciences). SYTOX-associated fluorescence emission was collected in the FL1 channel (530/30 band-pass filter), and EMA-associated fluorescence was collected in the FL3 channel (670 long-pass filter). Events were triggered on FL1 fluorescence. The FCM gating strategy that was developed for this micronuclei scoring application required events to meet each of six separate criteria before they were scored as nuclei or micronuclei (see FIGS. 2A-H). The incidence of flow cytometric-scored micronuclei is expressed as frequency percent (no. micronuclei/no. nuclei×100), and are based on the acquisition of 20,000 EMA-negative nuclei per specimen.
Approximately 3.5×10^6 cells per culture were centrifuged and resuspended with 20 μl heat-inactivated fetal bovine serum. 5 μl aliquots were applied to glass slides. Air dried slides were submerged in absolute methanol for 10 minutes and then stored in the dark until staining and analysis. […] An Olympus BH-2 fluorescence microscope was used for micronuclei measurements at 400× magnification. For each treated culture, 2000 mononucleated, non-apoptotic, non-necrotic cells were analyzed for the presence of micronuclei (1000 cells×2 slides per culture).

For series [2], the system named is L5178Y cells. The method, then: as §1
That is, by displaying the SYTOX-associated signal as fluorescence area (FL1-A), qualitative assessments of cell cycle-related effects were possible. […] Note that while these observations are presented in a qualitative manner, software packages are available which are capable of deconvoluting such histograms to provide quantitative assessment of cell cycle effects.

Series [3] deals with L5178Y cells. The method, then: Once L5178Y or CHO-K1 cells were collected as described above, cytotoxicity measurements were performed as follows: 0.5 ml of each culture was added to flow cytometry tubes containing fluorescein diacetate (“FDA”) (0.075 μg/ml), propidium iodide (“PI”) (25 μg/ml), and 2.5 μm Carmine 580/620 microspheres (Molecular Probes, Eugene, Oreg.). The concentration of these “counting beads” was determined with a hemacytometer. […] Relative survival was then calculated as follows: The number of FDA+ cells in each chemical treatment culture was expressed as a percentage of the number of FDA+ cells in the concurrent solvent control culture.
The source holds these as a separate data set.

Series [4] relates to CHO-K1 cells. Kind of series: In vitro micronucleus test, flow cytometric and microscopy scoring, CHO-K1 cells. The series is classed as cell-based, Chinese hamster. The following applies: 4 hr treatment, 20 hr recovery, 0-40 μg/ml, FIG. 8. The method, then: On the day before treatment, CHO-K1 cells were harvested and counted, and their density was adjusted to 6×10^4/ml in culture medium. This cell suspension was added to 75 cm^2 flasks (20 ml per flask; one flask per exposure group). After incubating for approximately 16 to 24 hrs at 37° C., spent culture medium was replaced with 20 ml fresh, pre-warmed medium per flask. Methyl methanesulfonate was added from 1000× strength stock solutions for final concentrations of 0, 10, 20, 30, and 40 μg/ml, at which time cultures where reincubated at 37° C. After a 4 hr treatment period, culture medium was aspirated, cells were rinsed one time with an isotonic salt solution, and then 20 ml fresh, pre-warmed culture medium was added to each flask. These cultures were reincubated for a 20 hr recovery period. At the time of cell harvest, 2.5 ml typsin/EDTA solution per flask was used to detach cells from culture vessels. Cells were collected via centrifugation and responded in culture medium.
(§2) Events were triggered on FL1 fluorescence.
5 μl aliquots were applied to glass slides.
For orientation: Flow cytometry measures light scatter and fluorescence of single cells or particles in a stream.

Series [5] concerns L5178Y cells. Nature of the series: Cytotoxicity, % EMA-positive events by flow cytometry. The series is classed as cell-based.
Source text: as §2
In addition to supplying genotoxicity and cell cycle information, these flow cytometric analyses were capable of concurrently providing a measure of cytotoxicity. Specifically, the frequency of EMA-positive events is a statistic that relates to membrane integrity. […] This statistic could be useful for helping to identify chemical concentrations that are too cytotoxic for reliable genotoxicity assessment.

Consider `O=P1(N(CCCl)CCCl)NCCCO1` (centres unmarked) [Cyclophosphamide monohydrate], for which the “MN Induction (≥3-fold)” value in series [1] (L5178Y cells, treatment/recovery 4/20 hrs, benzo[a]pyrene and cyclophosphamide with 10% v/v metabolic activation system) is given as “Yes”.

On to `C[C@@H]1C[C@H]2[C@@H]3CCC4=CC(=O)C=C[C@]4(C)[C@@]3(F)[C@@H](O)C[C@]2(C)[C@@]1(O)C(=O)CO` [Dexamethasone], for which, in series [1], the “MN Induction (≥3-fold)” value was “No” and the “changes in % micronuclei” value is “Nil to slight changes”. For the same molecule, the “increase in % micronuclei relative to solvent control” value in series [1] (mouse) is reported as “less than 3 fold”. Moreover, the “Cell Cycle Effect” value in series [2] was “−”. The cell survival result in series [3] is reported as “significantly affected cell survival”.

`NC(=O)NO` [Hydroxyurea]: in series [1], the “MN Induction (≥3-fold)” value is listed as “Yes”. The “Cell Cycle Effect” value in series [2] is “+++”.

Consider `COS(C)(=O)=O` [Methyl methanesulfonate], for which the “MN Induction (≥3-fold)” value in series [1] is given as “Yes”. The “Cell Cycle Effect” value in series [2] was “+++”. The micronucleus frequency entry in series [4] was “dose-related increase”.

With `OC[C@H]1O[C@@](CO)(O[C@H]2O[C@H](CO)[C@@H](O)[C@H](O)[C@H]2O)[C@@H](O)[C@@H]1O` [Sucrose], the micronucleus-induction result in series [1] (L5178Y cells, continuous-treatment exposure (24 hr)) is “not evident”. Further, in series [2], the “Cell Cycle Effect” value is “−”. The “% EMA-positive events” value in series [5] is reported as “non-cytotoxic”.

Regarding `CC[C@]1(O)C[C@@H]2CN(CCc3c([nH]c4ccccc34)[C@@](C(=O)OC)(c3cc4c(cc3OC)N(C)[C@H]3[C@@](O)(C(=O)OC)[C@H](OC(C)=O)[C@]5(CC)C=CCN6CC[C@]43[C@@H]65)C2)C1` [Vinblastine sulfate], in series [1], the “MN Induction (≥3-fold)” value is reported as “Yes” and the “micronucleus response, continuous 24 hr exposure versus short-term treatment” value is “greater”. For the same molecule, the “Cell Cycle Effect” value in series [2] was “+++”.
